This note sets out measurements from patent US10280169B2, “Biaryl bruton's tyrosine kinase inhibitors” (BIOGEN MA INC., priority 2013, dated 2019).

Assay [1] addresses T1, pBTK (Homo sapiens, UniProt Q06187).
T1 construct: Heparinized venous blood was purchased from Bioreclamation, Inc. or SeraCare Life Sciences; tissue Bioreclamation, Inc. or SeraCare Life Sciences; host or cells: heparinized venous whole blood
As to the kind of experiment: In vitro PD assay in whole blood (pBTK assay). The assay is classed as cell-based. The conditions noted are these: 30 min at 37° C. Here is the method:
Heparinized venous blood was purchased from Bioreclamation, Inc. or SeraCare Life Sciences and shipped overnight. Whole blood was aliquoted into 96-well plate and “spiked” with serial dilutions of test compound in DMSO or with DMSO without drug. The final concentration of DMSO in all wells was 0.1%. The plate was incubated at 37° C. for 30 min. Lysis buffer containing protease and phosphatase inhibitors was added to the drug-containing samples and one of the DMSO-only samples (+PPi, high control), while lysis buffer containing protease inhibitors was added to the other DMSO-only samples (−PPi, low control). All of the lysed whole blood samples were subjected to the total BTK capture and phosphotyrosine detection method described in Example 30. ECL values were graphed in Prism and a best-fit curve with restrictions on the maximum and minimum defined by the +PPi high and −PPi low controls was used to estimate the test compound concentration that results in 50% inhibition of ECL signal by interpolation.
In some instances where a compound tested has activity “D”, other structurally similar compounds beyond the measurable limits of the assay are not included in Table 2.

For assay [2], the target named is T2, BTK (Homo sapiens, UniProt Q06187).
T2 construct: purchased Upstate 14-552
The assay can be described thus: In vitro BTK kinase assay: BTK-POLYGAT-LS assay. The class given is biochemical. The note with it: 10 uM ATP, read-out: IC50 (10 uMATP).

Molecules are shown by their SMILES.

T1 sequence (Q06187 whole entry): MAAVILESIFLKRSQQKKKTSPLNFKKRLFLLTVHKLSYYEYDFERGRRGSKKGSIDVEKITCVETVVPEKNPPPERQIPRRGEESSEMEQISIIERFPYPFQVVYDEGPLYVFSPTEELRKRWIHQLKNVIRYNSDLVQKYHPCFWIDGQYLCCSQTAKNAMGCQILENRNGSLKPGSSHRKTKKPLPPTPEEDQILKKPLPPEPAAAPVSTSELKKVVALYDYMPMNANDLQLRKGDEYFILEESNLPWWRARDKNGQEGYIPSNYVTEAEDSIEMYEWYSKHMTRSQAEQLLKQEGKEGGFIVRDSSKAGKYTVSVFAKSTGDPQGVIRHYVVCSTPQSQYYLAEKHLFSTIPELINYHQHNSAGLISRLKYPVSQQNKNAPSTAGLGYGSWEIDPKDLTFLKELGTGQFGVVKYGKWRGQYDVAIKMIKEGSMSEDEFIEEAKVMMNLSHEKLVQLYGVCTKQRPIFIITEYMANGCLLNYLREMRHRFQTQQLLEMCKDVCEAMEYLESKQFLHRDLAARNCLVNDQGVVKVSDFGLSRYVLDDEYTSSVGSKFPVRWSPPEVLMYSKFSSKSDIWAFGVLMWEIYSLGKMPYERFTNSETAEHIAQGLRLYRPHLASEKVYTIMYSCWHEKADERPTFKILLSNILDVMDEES
T2 sequence (Q06187 whole entry): as above

Turning to `CC(C)(C)c1csc(C(=O)NC2CCCc3cc(-c4ncnc5[nH]ncc45)ccc32)n1` (stereo in doubt) [Example I-100, (R)—N-(6-(1H-pyrazolo[3,4-d]pyrimidin-4-yl)-1,2,3,4-tetrahydronaphthalen-1-yl)-4-(tert-butyl)thiazole-2-carboxamide], the IC50 was 1500 to 10000 nM in assay [1] and less than 10 nM in assay [2].

As for `Cc1cc(-c2ncnc3[nH]ccc23)ccc1CNC(=O)c1ccc(C(C)(C)C)cn1` [Example I-1, 5-(tert-butyl)-N-(2-methyl-4-(7H-pyrrolo[2,3-d]pyrimidin-4-yl)benzyl)picolinamide], the values for the IC50 in assay [1] and in assay [2] were 1500 to 10000 nM and less than 10 nM, respectively.

In the case of `Cc1cc(-c2ncnc3[nH]ccc23)ccc1CNC(=O)c1ccc(C(C)(C)C)cc1` [Example I-2, 4-(tert-butyl)-N-(2-methyl-4-(7H-pyrrolo[2,3-d]pyrimidin-4-yl)benzyl)benzamide], the IC50 was 1500 to 10000 nM in assay [1] and less than 10 nM in assay [2].

On to `O=C(NC1CCCc2cc(-c3ncnc4[nH]ccc34)ccc21)c1cc2c(s1)CCCC2` (centres unmarked) [Example I-16, N-(6-(7H-pyrrolo[2,3-d]pyrimidin-4-yl)-1,2,3,4-tetrahydronaphthalen-1-yl)-4,5,6,7-tetrahydrobenzo[b]thiophene-2-carboxamide], for which the IC50 was in the range of 1500 to 10000 nM in assay [1] and 10 to 99 nM in assay [2].

On to `Cc1cc(-c2ncnc3cc(C4=CCN(C(=O)N(C)C)CC4)[nH]c23)ccc1CNC(=O)c1ncc(C(C)(C)C)s1` [Example I-18, 5-(tert-butyl)-N-(4-(6-(1-(dimethylcarbamoyl)-1,2,3,6-tetrahydropyridin-4-yl)-5H-pyrrolo[3,2-d]pyrimidin-4-yl)-2-methylbenzyl)thiazole-2-carboxamide], for which the results for the IC50 in assay [1] and in assay [2] were less than 500 nM and less than 10 nM, respectively.

`Cc1cc(-c2ncnc3[nH]c(C4=CCN(C(=O)N(C)C)CC4)cc23)ccc1CNC(=O)c1cnc(C(C)(C)C)s1` [Example I-19, 2-(tert-butyl)-N-(4-(6-(1-(dimethylcarbamoyl)-1,2,3,6-tetrahydropyridin-4-yl)-7H-pyrrolo[2,3-d]pyrimidin-4-yl)-2-methylbenzyl)thiazole-5-carboxamide]: the IC50 was less than 500 nM in assay [1] and less than 10 nM in assay [2].

In the case of `Cc1cc(-c2ncnc3[nH]c(-c4ccc(C(=O)N5CCOCC5)cc4)cc23)ccc1CNC(=O)c1cnc(C(C)(C)C)s1` [Example I-20], the IC50 in assay [1] is less than 500 nM; in assay [2], less than 10 nM.

Turning to `Cc1cc(-c2ncnc3[nH]c(C4=CCS(=O)(=O)CC4)cc23)ccc1CNC(=O)c1cnc(C(C)(C)C)s1` [Example I-21, 2-(tert-butyl)-N-(4-(6-(1,1-dioxido-3,6-dihydro-2H-thiopyran-4-yl)-7H-pyrrolo[2,3-d]pyrimidin-4-yl)-2-methylbenzyl)thiazole-5-carboxamide], the IC50 in assay [1] was less than 500 nM; in assay [2], less than 10 nM.

With `Cc1cc(-c2ncnc3cc(C4=CCS(=O)(=O)CC4)[nH]c23)ccc1CNC(=O)c1cnc(C(C)(C)C)s1` [Example I-22, 2-(tert-butyl)-N-(4-(6-(1,1-dioxido-3,6-dihydro-2H-thiopyran-4-yl)-5H-pyrrolo[3,2-d]pyrimidin-4-yl)-2-methylbenzyl)thiazole-5-carboxamide], the values for the IC50 in assay [1] and in assay [2] were less than 500 nM and less than 10 nM, respectively.

As for `Cc1cc(-c2ncnc3cc(C4CCN(C)CC4)[nH]c23)ccc1CNC(=O)c1cnc(C(C)(C)C)s1` [Example I-25, 2-(tert-butyl)-N-(2-methyl-4-(6-(1-methylpiperidin-4-yl)-5H-pyrrolo[3,2-d]pyrimidin-4-yl)benzyl)thiazole-5-carboxamide], the IC50 was 500 to 1500 nM in assay [1] and less than 10 nM in assay [2].

For the compound `Cc1cc(-c2ncnc3[nH]c(-c4cnn(C)c4)cc23)ccc1CNC(=O)c1cnc(C(C)(C)C)s1` [Example I-26, 2-(tert-butyl)-N-(2-methyl-4-(6-(1-methyl-1H-pyrazol-4-yl)-7H-pyrrolo[2,3-d]pyrimidin-4-yl)benzyl)thiazole-5-carboxamide], the IC50 in assay [1] was less than 500 nM; in assay [2], less than 10 nM.

Take `CC(C)(C)c1ncc(C(=O)NC(CO)c2ccc(-c3ncnc4[nH]c(C5=CCS(=O)(=O)CC5)cc34)cc2)s1` (centres unmarked) [Example I-30, 2-(tert-butyl)-N-(1-(4-(6-(1,1-dioxido-3,6-dihydro-2H-thiopyran-4-yl)-7H-pyrrolo[2,3-d]pyrimidin-4-yl)phenyl)-2-hydroxyethyl)thiazole-5-carboxamide]: the IC50 in assay [1] is 1500 to 10000 nM; in assay [2], less than 10 nM.

Consider `Cc1cc(-c2ncnc3[nH]c(-c4cnn(C)c4)cc23)ccc1C(CO)NC(=O)c1cnc(C(C)(C)C)s1` (centres unmarked) [Example I-31, 2-(tert-butyl)-N-(2-hydroxy-1-(2-methyl-4-(6-(1-methyl-1H-pyrazol-4-yl)-7H-pyrrolo[2,3-d]pyrimidin-4-yl)phenyl)ethyl)thiazole-5-carboxamide], for which the values for the IC50 in assay [1] and in assay [2] were 500 to 1500 nM and less than 10 nM, respectively.

Turning to `Cc1cc(-c2ncnc3[nH]c(-c4cnn(C)c4)cc23)ccc1C(CO)NC(=O)c1cc2c(s1)CCOC2` (centres unmarked) [Example I-32, N-(2-hydroxy-1-(2-methyl-4-(6-(1-methyl-1H-pyrazol-4-yl)-7H-pyrrolo[2,3-d]pyrimidin-4-yl)phenyl)ethyl)-6,7-dihydro-4H-thieno[3,2-c]pyran-2-carboxamide], the IC50 was less than 500 nM in assay [1] and less than 10 nM in assay [2].

As for `Cn1cc(-c2cc3c(-c4ccc5c(c4)CCCC5NC(=O)c4cnc(C(C)(C)C)s4)ncnc3[nH]2)cn1` (centres unmarked) [Example I-34, 2-(tert-butyl)-N-(6-(6-(1-methyl-1H-pyrazol-4-yl)-7H-pyrrolo[2,3-d]pyrimidin-4-yl)-1,2,3,4-tetrahydronaphthalen-1-yl)thiazole-5-carboxamide], the figures for the IC50 in assay [1] and in assay [2] were less than 500 nM and less than 10 nM, respectively.

For `Cn1cc(-c2cc3c(-c4ccc5c(c4)CCCC5NC(=O)c4cc5c(s4)CCOC5)ncnc3[nH]2)cn1` (centres unmarked) [Example I-35, N-(6-(6-(1-methyl-1H-pyrazol-4-yl)-7H-pyrrolo[2,3-d]pyrimidin-4-yl)-1,2,3,4-tetrahydronaphthalen-1-yl)-6,7-dihydro-4H-thieno[3,2-c]pyran-2-carboxamide], the IC50 in assay [1] was 500 to 1500 nM; in assay [2], less than 10 nM.

In the case of `Cc1cc(-c2ncnc3cc(-c4cnn(C)c4)[nH]c23)ccc1CNC(=O)c1ncc(C(C)(C)C)s1` [Example I-36], the results for the IC50 in assay [1] and in assay [2] were less than 500 nM and less than 10 nM, respectively.

For `Cc1cc(-c2ncnc3cc(-c4cn(C)nc4C)[nH]c23)ccc1CNC(=O)c1cnc(C(C)(C)C)s1` [Example I-39, 2-(tert-butyl)-N-(4-(6-(1,3-dimethyl-1H-pyrazol-4-yl)-5H-pyrrolo[3,2-d]pyrimidin-4-yl)-2-methylbenzyl)thiazole-5-carboxamide], the IC50 in assay [1] was less than 500 nM; in assay [2], less than 10 nM.

As for `CCn1cc(-c2cc3ncnc(-c4ccc(CNC(=O)c5ncc(C(C)(C)C)s5)c(C)c4)c3[nH]2)cn1` [Example I-40, 5-(tert-butyl)-N-(4-(6-(1-ethyl-1H-pyrazol-4-yl)-5H-pyrrolo[3,2-d]pyrimidin-4-yl)-2-methylbenzyl)thiazole-2-carboxamide], the IC50 in assay [1] is less than 500 nM; in assay [2], less than 10 nM.

On to `Cc1cc(-c2ncnc3cc(-c4cn[nH]c4)[nH]c23)ccc1CNC(=O)c1ncc(C(C)(C)C)s1` [Example I-41, N-(4-(6-(1H-pyrazol-4-yl)-5H-pyrrolo[3,2-d]pyrimidin-4-yl)-2-methylbenzyl)-5-(tert-butyl)thiazole-2-carboxamide], for which the IC50 was 500 to 1500 nM in assay [1] and less than 10 nM in assay [2].

For the compound `Cn1cc(-c2cc3c(-c4ccc5c(c4)CCCCC5NC(=O)c4cnc(C(C)(C)C)s4)ncnc3[nH]2)cn1` (centres unmarked) [Example I-161, 2-(tert-butyl)-N-(2-(6-(1-methyl-1H-pyrazol-4-yl)-7H-pyrrolo[2,3-d]pyrimidin-4-yl)-6,7,8,9-tetrahydro-5H-benzo[7]annulen-5-yl)thiazole-5-carboxamide], the IC50 in assay [2] is less than 10 nM.

Turning to `Cn1cc(-c2cc3c(-c4ccc5c(c4)CCCCC5NC(=O)N4CCC(C(C)(C)C)C4)ncnc3[nH]2)cn1` (centres unmarked) [Example I-162, 3-(tert-butyl)-N-(2-(6-(1-methyl-1H-pyrazol-4-yl)-7H-pyrrolo[2,3-d]pyrimidin-4-yl)-6,7,8,9-tetrahydro-5H-benzo[7]annulen-5-yl)pyrrolidine-1-carboxamide], in assay [2], the IC50 was less than 10 nM.

Regarding `CC(C)OC1CN(C(=O)NC2CCCCc3cc(-c4ncnc5[nH]c(-c6cnn(C)c6)cc45)ccc32)C1` (centres unmarked) [Example I-163, 3-isopropoxy-N-(2-(6-(1-methyl-1H-pyrazol-4-yl)-7H-pyrrolo[2,3-d]pyrimidin-4-yl)-6,7,8,9-tetrahydro-5H-benzo[7]annulen-5-yl)azetidine-1-carboxamide], the IC50 in assay [2] was less than 10 nM.

In the case of `Cn1cc(-c2cc3c(-c4ccc5c(c4)CCCCC5NC(=O)N4CC(OC(C)(C)C)C4)ncnc3[nH]2)cn1` (centres unmarked) [Example I-164, 3-(tert-butoxy)-N-(2-(6-(1-methyl-1H-pyrazol-4-yl)-7H-pyrrolo[2,3-d]pyrimidin-4-yl)-6,7,8,9-tetrahydro-5H-benzo[7]annulen-5-yl)azetidine-1-carboxamide], in assay [2], the IC50 was less than 10 nM.
